Laboratory results: US20230364084A1, “METHODS FOR PREVENTING OR TREATING CONDITIONS RELATED TO PIKFYVE ACTIVITY” (The Regents of the University of Michigan, priority 2020, published 2023)

Tests used:
VCaP cells = experiment: untargeted lipidomic analysis; type: cell-based, human; conditions: 300 nM, 6 and 24 hours
Method: Details of sample preparation and identification for untargeted lipidomic profiling have been previously reported^68. The lipids were extracted using a modified Bligh-Dyer method^69. The extraction was carried out using a 2:2:2 volume ratio of water:methanol:dichloromethane at room temperature after spiking internal standard lipids (17:0LPC, 17:0PC, 17:0PE, 17:0PG, 17:0 ceramide, 17:0SM, 17:0PS, 17:0PA, 17:0TG, 17:0MG, d5-DG, d31-TG, and 17.0-20.4 PI). The organic layer was collected and dried completely under nitrogen. The organic dried extract containing lipids was further analyzed by LC-MS-based lipidomics. The dried lipid extracts were injected onto a 1.8-μm particle 50×2.1 mm id Waters Acquity HSS T3 column (Waters, Milford, MA), which was heated to 55° C. […] As controls (QC) to monitor the profiling process, a pool of plasma and test plasma (a small aliquot from all test samples) were extracted and analyzed in tandem with the experimental samples. These controls were incorporated multiple times into the randomization scheme such that sample preparation and analytical variability could be constantly monitored. […] Identified lipids were quantified by normalizing against their respective internal standard. […] The QC samples were mainly used to remove technical outliers and lipid species that were detected below the lipid class-based lower limit of quantification.

Myc-CaP tumors = experiment: Myc-CaP syngeneic murine prostate model in FVB mice; type: in vivo, mouse
Method: MYC-driven murine prostate cancer cells (Myc-CaP) were injected at a density of 1×10^6 subcutaneously into both flanks of 4- to 6-week old FVB mice (Charles River Laboratories) in serum-free medium with 50% Matrigel. When tumors reached ˜50 mm^3, tumor-bearing mice were randomized and treated with 15 mg/kg or 30 mg/kg ESK981 or vehicle (ORA-PLUS) by oral gavage 5 days per week. For the ESK981 and anti-PD-1 combination study, 15 mg/kg ESK981 or vehicle were given 5 days per week by oral gavage, while anti-PD-1 (Cat No. BE0146, BioXcell) or isotype control (Cat No. BE0089, BioXcell) were given at 200 μg per mouse 3 times per week by intraperitoneal injection (i.p.). For the ESK981 and anti-CXCR3 combination study, 15 mg/kg ESK981 or vehicle were given 5 days per week by oral gavage, while anti-CXCR3 (Cat No. BE0249, BioXcell) or isotype control (Cat No. BE0091, BioXcell) were given at 100 μg per mouse 3 times per week by i.p. For the shPikfyve study, Myc-CaP shPikfyve cells were injected at a density of 2×10^6 subcutaneously into both flanks of 4- to 6-week old NSG or FVB mice in serum-free medium with 50% Matrigel. When tumors reached 100 mm^3, tumor-bearing mice were randomized and treated with normal diet or doxycycline 625 mg/kg diet (Envigo). For the shPikfyve and anti-PD-1 combination study, Myc-CaP shPikfyve cells were injected at a density of 2×10^6 subcutaneously into both flanks of 4- to 6-week old FVB mice in serum-free medium with 50% Matrigel. When tumors reached 100 mm^3, tumor-bearing mice were randomized and treated with normal diet or doxycycline 625 mg/kg diet for 7 days, and then anti-PD-1 or isotype control were given at 200 μg per mouse 3 times per week in combination with normal or doxycycline diet.

[1] = 15 mg/kg solo treatment, four weeks

CC(C)Cn1c2ccc(Nc3ncccn3)cc2c2c3c(c4c(c21)CCc1nn(C)cc1-4)C(=O)NC3 [ESK981, 13-isobutyl-4-methyl-10-(pyrimidin-2-ylamino)-1,2,4,7,8,13-hexahydro-6H-indazolo[5,4-a]pyrrolo[3,4-c]carbazol-6-one]
major lipid changed (VCaP cells): phosphatidylethanolamine (PE) was the major lipid increased | effect of co-treatment on the anti-PD-1 tumor inhibitory effect (Myc-CaP tumors; 15 mg/kg ESK981 with anti-PD-1, 6 weeks): strongly enhanced | Cd3 mRNA in tumors (Myc-CaP tumors; [1]): upregulated | Cxcl10 mRNA in tumors (Myc-CaP tumors; [1]): upregulated | Cd3 mRNA levels in tumors (Myc-CaP tumors; 15 mg/kg, 30 mg/kg): dose-dependent upregulation | tumor doubling time (progression-free survival) (Myc-CaP tumors; 15 mg/kg, 30 mg/kg): significantly increased tumor doubling time | average Cxcl10 levels in tumors (Myc-CaP tumors; 15 mg/kg, 30 mg/kg, dose-dependent): significantly increased | tumor growth (Myc-CaP tumors; 15 mg/kg, 30 mg/kg, oral gavage 5 days per week, three weeks): dose-dependent growth inhibition | LC3 lipidation in tumors (Myc-CaP tumors; 15 mg/kg, five days of treatment): elevated LC3 lipidation | bioluminescent-negative tumors (Myc-CaP tumors; 30 mg/kg group, day 19): five out of ten | CD3+ T cell trafficking in the tumor microenvironment (Cd3 RNA ISH) (Myc-CaP tumors; single agents): increased
